Experimental data from patent US20250073255A1, “USE OF FA-TYPE LIPID COMPOUNDS IN PREPARATION OF NUCLEIC ACID DELIVERY REAGENT AND RELATED PRODUCT” (BEIJING BAISHIKANG PHARMACEUTICAL TECHNOLOGY (BSJPHARMA) …, priority 2021, published 2025).

Test system: C57BL/6 male mice
Experiment: In vivo delivery study of lipid nucleic acid mixture (oral gavage, RT-qPCR of PGY-sRNA-26 in tissues)
Parameters: species or system mouse
Details: for overall delivery efficacy: delivering nucleic acids into each tissue and blood tested: 100 μg lipid:10 nmol PGY-sRNA-26, all tissues and blood tested; for oral delivery of single-stranded sRNA nucleic acids into mouse blood / oral delivery of single-stranded sRNA nucleic acids into mouse brain tissue / oral delivery of single-stranded sRNA nucleic acids into mouse femur / oral delivery of single-stranded sRNA nucleic acids into mouse heart tissue / oral delivery of single-stranded sRNA nucleic acids into mouse intestinal tissue / oral delivery of single-stranded sRNA nucleic acids into mouse kidney tissue / oral delivery of single-stranded sRNA nucleic acids into mouse liver tissue / oral delivery of single-stranded sRNA nucleic acids into mouse lung tissue / oral delivery of single-stranded sRNA nucleic acids into mouse spleen tissue / oral delivery of single-stranded sRNA nucleic acids into mouse stomach tissue: 100 μg lipid:10 nmol PGY-sRNA-26, sampled after 12 hours; for oral delivery of single-stranded sRNA nucleic acids into mouse heart tissue: vs free uptake group; for oral delivery of single-stranded sRNA nucleic acids into mouse intestinal tissue: intestine
How it was run: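 Lipid (100 μg) and 10 nmol 3'-methylated single-stranded PGY-sRNA-26 were heated at 90 °C for 15 min, then given by oral gavage to mice fasted 12 h. Controls were saline and free sRNA. Blood and tissues were taken at 12 h, and levels were measured by stem-loop RT-qPCR relative to U6.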

| Structure (SMILES) | overall delivery efficacy: delivering nucleic acids into each tissue and blood tested | oral delivery of single-stranded sRNA nucleic acids into mouse blood | oral delivery of single-stranded sRNA nucleic acids into mouse brain tissue | oral delivery of single-stranded sRNA nucleic acids into mouse femur | oral delivery of single-stranded sRNA nucleic acids into mouse heart tissue | oral delivery of single-stranded sRNA nucleic acids into mouse intestinal tissue | oral delivery of single-stranded sRNA nucleic acids into mouse kidney tissue | oral delivery of single-stranded sRNA nucleic acids into mouse liver tissue | oral delivery of single-stranded sRNA nucleic acids into mouse lung tissue | oral delivery of single-stranded sRNA nucleic acids into mouse spleen tissue | oral delivery of single-stranded sRNA nucleic acids into mouse stomach tissue |
| --- | --- | --- | --- | --- | --- | --- | --- | --- | --- | --- | --- |
| N[C@@H](CCCC(=O)O)C(=O)O [Lipid 595, (2S)-2-aminohexanedioic acid] | best delivery efficacy | can effectively orally deliver | can effectively orally deliver | can effectively orally deliver | can effectively orally deliver | can effectively orally deliver | can effectively orally deliver | can effectively orally deliver | can effectively orally deliver | can effectively orally deliver | can effectively orally deliver |
| CC(C(=O)O)C(=O)O [Lipid 596, 2-methylpropanedioic acid] | best delivery efficacy | can effectively orally deliver | can effectively orally deliver | can effectively orally deliver | can effectively orally deliver | can effectively orally deliver | can effectively orally deliver | can effectively orally deliver | can effectively orally deliver | can effectively orally deliver | can effectively orally deliver |
| CC(C)(CC(=O)O)CC(=O)O [Lipid 598, 3,3-dimethylpentanedioic acid] | best delivery efficacy | can effectively orally deliver | can effectively orally deliver | can effectively orally deliver | can effectively orally deliver | can effectively orally deliver | can effectively orally deliver | can effectively orally deliver | can effectively orally deliver | can effectively orally deliver | can effectively orally deliver |
| CCCCCCCCCCCCCCCC(N)=O [Lipid 599, hexadecanamide] | best delivery efficacy | can effectively orally deliver | can effectively orally deliver | can effectively orally deliver | can effectively orally deliver | can effectively orally deliver | can effectively orally deliver | can effectively orally deliver | can effectively orally deliver | can effectively orally deliver | can effectively orally deliver |
| CCCCCCCC/C=C/CCCCCCCCO [Lipid 600, (E)-octadec-9-en-1-ol] | best delivery efficacy | can effectively orally deliver | can effectively orally deliver | can effectively orally deliver | can effectively orally deliver | can effectively orally deliver | can effectively orally deliver | can effectively orally deliver | can effectively orally deliver | can effectively orally deliver | can effectively orally deliver |
| CCCCCCCCCCCCCCCCCC(N)=O [Lipid 601, octadecanamide] | best delivery efficacy | can effectively orally deliver | can effectively orally deliver | can effectively orally deliver | can effectively orally deliver | can effectively orally deliver | can effectively orally deliver | can effectively orally deliver | can effectively orally deliver | can effectively orally deliver | can effectively orally deliver |
| CCCCCCCCCCCCCCCC=O [Lipid 602] | best delivery efficacy | can effectively orally deliver | can effectively orally deliver | can effectively orally deliver | can effectively orally deliver | can effectively orally deliver | can effectively orally deliver | can effectively orally deliver | can effectively orally deliver | can effectively orally deliver | can effectively orally deliver |
| CC1(O)CCOC(=O)C1 (stereo not shown) [Lipid 603, 4-hydroxy-4-meth-yl-oxan-2-one] | best delivery efficacy | can effectively orally deliver | can effectively orally deliver | can effectively orally deliver | can effectively orally deliver | can effectively orally deliver | can effectively orally deliver | can effectively orally deliver | can effectively orally deliver | can effectively orally deliver | can effectively orally deliver |
